In publication PMC11123956, “Nobiletin Stimulates Adrenal Hormones and Modulates the Circadian Clock in Mice” (Nutrients, 2024):

Columns and labels:
[1] = system: PER2::LUC rhythm in peripheral tissues (kidney, liver, submandibular gland); assay: In vivo bioluminescence imaging of peripheral PER2::LUC rhythm; design: species or system mice; conditions: 100 mg/kg i.p., 3 days
Experimental: Male C57BL/6J mice (7 weeks old) were purchased from Charles River Japan (Kanagawa, Japan) and used for the serum hormone assay and RT-PCR. Male ICR mice were purchased from Tokyo Laboratory Animals Science Co., Ltd. (Tokyo, Japan), and female PERIOD2::LUCIFERASE (PER2::LUC) knock-in mice (ICR background) bred at Waseda University were used for blood glucose measurements and in vivo imaging assays, respectively. The mice were all housed under conditions of controlled temperature (23 °C ± 3 °C), humidity (50% ± 20%), and lighting (lights on from 07:00 to 19:00 at Taisho Pharmaceutical Co., Ltd. or from 08:00 to 20:00 at Waseda University). In the 24 h cycle, Zeitgeber time 0 (ZT0) was designated as the time when the lights were turned on, and ZT12 was designated as the time when the lights were turned off. All the mice were given access to food and tap water ad libitum, and nobiletin (10–100 mg/kg; purchased from FUJIFILM Wako Pure Chemical Corporation, Osaka, Japan) was administered by intraperitoneal (i.p.) injection in the vehicle (10 mL/kg body weight) containing 0.5% carboxymethyl cellulose (CMC). Rolipram (PDE4 inhibitor, FUJIFILM Wako Pure Chemical Corporation) and SR1078 (RORα/γ agonist, FUJIFILM Wako Pure Chemical Corporation) were also used for the experiment at 10 mg/kg in 0.5% CMC [12]. Mice were euthanized by rapid decapitation for whole blood samples.
An in vivo imaging system (IVIS) (Caliper Life Sciences, Hopkinton, MA, USA) was used to monitor the PER2::LUC activity rhythm waveform in the peripheral tissues (kidney, liver, and submandibular gland) of the mice. A previously developed protocol and analytical method to monitor bioluminescence oscillations in peripheral tissues was used. Briefly, the mice were anesthetized with isoflurane (FUJIFILM Wako Pure Chemical Corporation, Osaka, Japan) and enriched with oxygen. Mice were anesthetized and injected subcutaneously on the back and near the neck with D-luciferin potassium salt (FUJIFILM Wako Pure Chemical Corporation, Osaka, Japan) at a dose of 15 mg/kg body weight. Images were taken using an IVIS, in the dorsal-up position for the kidney 8 min after injection and in the ventral-up position for the liver and the submandibular gland 10 min after injection. Images were obtained six times/day at 4 h intervals (ZT3, 7, 11, 15, 19, and 23) (Figure 1 and Figure 2). The mice were returned to their home cages after each imaging procedure and quickly recovered from isoflurane anesthesia. Bioluminescence emitted from the kidneys and liver was calculated automatically using Living Image 3.2 software (Caliper Life Sciences). The average photon/min value for the six time points from each day was designated as 100%, and the bioluminescence rhythm for the entire day was expressed as a percentage of each set of six time points for individual organs. The peak phase and amplitude of the normalized data were determined using a single cosinor procedure program (Acro.exe version 3.5 [14]).
Figure 1 Experimental protocol for in vivo imaging. PER2::LUC female mice were treated with control (0.5% CMC) or nobiletin (100 mg/kg) at the same time points (ZT0, 4, 8, 12, 16, or 20) for three consecutive days, and then measured for peripheral clocks by in vivo whole-body imaging to examine phase–response curves (n = 4–5 in each).
Figure 2 Time-of-day dependence of peripheral PER2::LUC changes in nobiletin injection. (A) Representative photo images of in vivo PER2::LUC bioluminescence in the kidney, liver, and submandibular gland (sab gla). (B) Waveforms of PER2::LUC rhythm in each tissue at each treatment time. (C,D) Phase–response curves or amplitude–response curves of nobiletin injections in peripheral PER2::LUC rhythm. […]

[2] = Blood glucose after i.p. injection; assay type: in vivo, mice; conditions: 100 mg/kg, after 4 h fasting, 0-90 min
Experimental: Male C57BL/6J mice (7 weeks old) were purchased from Charles River Japan (Kanagawa, Japan) and used for the serum hormone assay and RT-PCR. Male ICR mice were purchased from Tokyo Laboratory Animals Science Co., Ltd. (Tokyo, Japan), and female PERIOD2::LUCIFERASE (PER2::LUC) knock-in mice (ICR background) bred at Waseda University were used for blood glucose measurements and in vivo imaging assays, respectively. The mice were all housed under conditions of controlled temperature (23 °C ± 3 °C), humidity (50% ± 20%), and lighting (lights on from 07:00 to 19:00 at Taisho Pharmaceutical Co., Ltd. or from 08:00 to 20:00 at Waseda University). In the 24 h cycle, Zeitgeber time 0 (ZT0) was designated as the time when the lights were turned on, and ZT12 was designated as the time when the lights were turned off. […]
Serum corticosterone, adrenaline, and adreno-corticotropic hormone (ACTH) levels, and corticotropin releasing factor (CRF) in the hypothalamus, were measured using enzyme-linked immunosorbent assay (ELISA). […] Blood glucose levels were measured using a Glucose PILOT kit (Aventir Biotech, LLC, Carlsbad, CA, USA). The range of blood glucose that could be precisely measured with the kit was 20–600 mg/dL. […]

In the case of `COc1ccc(-c2cc(=O)c3c(OC)c(OC)c(OC)c(OC)c3o2)cc1OC` [nobiletin], the “amplitude of PER2::LUC rhythm vs control” value ([1]; kidney, liver and submandibular gland (all three tissues), treatment at ZT16) is reported as “increased”, the “phase of PER2::LUC rhythm vs control” value ([1]; kidney, administration at ZT4) is reported as “phase advancement” and the “amplitude of PER2::LUC rhythm vs control” value ([1]; kidney, treatment at ZT0 or 4) is reported as “decreased”. The “phase of PER2::LUC rhythm vs control” value ([1]; kidney, treatment at ZT20) was “phase delay”, the “amplitude of PER2::LUC rhythm vs control” value ([1]; liver, treatment at ZT12) was “decreased” and the “phase of PER2::LUC rhythm vs control” value ([1]; liver, treatment at ZT12) was “phase-advanced”. For the same molecule, the “phase of PER2::LUC rhythm vs control” value ([1]; submandibular gland, administration at ZT4) was “phase advancement” and the blood glucose levels [2] was “increased”.
